Starred links: 1 amine or outer side, 2 acyl side, 3 side chain; linkers in the order of their positions; H or OH if unused. Positions of bridges follow the written chain, without caps; N, C: chain ends. Non-standard residues stand in square brackets, D forms with d. Residues, ends and D or L forms follow the SMILES beside them. Chains are numbered I, II in the order given. Actinocin(9to1) = Cc1c2oc3c(C)ccc(C(=O)[*:1])c3nc-2c(C(=O)[*:2])c(N)c1=O; NMeV = CN[C@H](C(=O)O)C(C)C; Sar = CNCC(=O)O

The values below come from patent US7754463B2, “Inhibitors of USP1 Deubiquitinating Enzyme Complex” (Dana-Farber Cancer Institute, priority 2006, dated 2010).

In data set [1] the test system is USP1. As to the kind of experiment: USP1 protein level after blocking transcription in 293T cells. The settings on record: 5 μg/ml. It is filed as cell-based, human. How it is done:
(§1) A) HeLa cells expressing exogenous Flag-HA-USP1 were irradiated with 50 J/m^2 and samples were taken at the indicated times. Flag-HA-USP1 was immunoprecipitated using anti-Flag antibodies and the immunoprecipitates were analyzed by immunoblotting using the indicated antibodies with the exception of Flag-HA-USP1, which was detected using the mouse monoclonal 12CA5 antibody. B) HeLa cells were UV irradiated with 50 J/m^2 (UVC) and samples were taken at the indicated times. Protein samples were analyzed by immunoblotting using the indicated antibodies. C) 293T cells were UV irradiated with 100 J/m^2 (UVC) and samples were taken at the indicated times. Total RNA was prepared an analyzed by Northern blot analysis using the indicated probes. D) Quantification of the USP1 and total RNA intensities from C. E) 293T cells were treated with 5 μg/ml Actinomycin D and samples were taken at the indicated times. Protein samples were analyzed by immunoblotting using the indicated antibodies.
(§2) UAF1 protein levels were not affected by UV irradiation (FIG. 6A and FIG. 6B). It was speculated that one regulatory event that may reduce USP1 activity after DNA damage may be transcriptional down-regulation of the USP1 gene. To test this hypothesis, USP1 mRNA levels were measured in 293T cells after UV irradiation. […]

In another data set the test system is UAF1. In words: UAF1 protein level after blocking transcription in 293T cells. The format is cell-based, human. The settings on record: 5 μg/ml. How it is done:
as §1, §2

In another data set the test system is USP1 mRNA. In words: USP1 mRNA level after transcription inhibition (Northern blot). Conditions: Actinomycin D, UV or both; data not shown. The format is cell-based, human. The procedure:
Northern blot analysis was performed as described using the 394 nt PstI-EcoRV fragment of the USP1 cDNA (Cohn, M. A., Kramerov, D., Hulgaard, E. F., and Lukanidin, E. M. (1997). The differentiation antigen Ly-6E.1 is expressed in mouse metastatic tumor cell lines. FEBS Lett 403, 181-185).
UAF1 protein levels were not affected by UV irradiation (FIG. 6A and FIG. 6B). It was speculated that one regulatory event that may reduce USP1 activity after DNA damage may be transcriptional down-regulation of the USP1 gene. To test this hypothesis, USP1 mRNA levels were measured in 293T cells after UV irradiation. A rapid decrease of the USP1 mRNA (FIG. 6C) was observed, with kinetics reflecting the decrease of USP1 protein (FIG. 6B). […] To test whether active mRNA degradation also play a role in addition to transcriptional regulation, transcription was inhibited by Actinomycin D, an effective inhibitor of RNA polymerase II, cells were irradiated with UV, or both treatments were combined. […] Importantly, the level of full length USP1 decreased with kinetics similar to those in cells treated with UV irradiation (FIG. 6B).

A further data set concerns Ubiquitin-AMC. As to the kind of experiment: In vitro enzymatic activity and kinetics of purified USP1, UAF1 and USP1/UAF1 with Ubiquitin-AMC. It is filed as biochemical, human. How it is done: A) Coomassie blue stain of purified USP1 and UAF1 proteins, expressed either alone of simultaneously as a protein complex in Sf9 cells. B) The in vitro enzymatic activity of USP1, UAF1 or the USP1/UAF1 complex was assayed using Ub-AMC as a substrate. The concentration of each protein was 10 nM. C) Calculation of slopes of the curves in B. The activity of USP1 was arbitrarily set to a value of 1. Relative values for UAF1 and USP1/UAF1 were −0.25 and 36.25, respectively. The slightly negative value for UAF1 is a result of photo bleaching during the experiment. D) UAF1 activates USP1 instantly upon binding in vitro. The enzymatic activity of the USP1 enzyme was monitored as UAF1 was added to the reaction. The concentrations of both USP1 and UAF1 were 2 nM. E) Km and kcat values of the USP1 enzyme and the USP1/UAF1 complex were determined by measuring the substrate conversion at constant enzyme concentration (20 nM for USP1 and 2 nM for the USP1/UAF1 complex) and various substrate concentrations (final concentrations of Ub-AMC of 0.6 μM, 0.75 μM, 1 μM, 1.5 μM and 3 μM for USP1; and 0.42 μM, 0.525 μM, 0.7 μM, 1.05 μM, 2.1 μM […] for the USP1/UAF1 complex). Km and kcat values were calculated by plotting the obtained conversion values in a double-reciprocal Lineweaver-Burk plot. Standard deviation of Km and kcat were calculated from 5-6 independent repeats of the above measurements and are shown in brackets in the table.
Transcription/translation in rabbit reticulocyte was performed according to manufactures recommendations with the exception that the reactions were performed at 30° C. (Promega). In vitro enzymatic assays in the presence of 5 μM Ubiquitin-VS (Ubiquitin-Vinyl Sulfone; U-202; Boston Biochem) were performed 30° C. In vitro enzymatic assays using Ubiquitin-AMC (Ubiquitin-7-amido-4-methylcoumarin; U-550; Boston Biochem) were performed in 50-100 μl reaction buffer (20 mM HEPES-KOH pH 7.8, 20 mM NaCl, 0.1 mg/ml Ovalbumin (A7641; Sigma), 0.5 mM EDTA and 10 mM DTT) at 37° C. Fluorescence was monitored in a FluoStar Galaxy Fluorometer (BMG Labtech Inc.). In vitro deubiquitination reactions of Ub-FANCD2 were performed in 10 μl reaction buffer (90 mM Tris-HCl pH 8.0, 50 mM NaCl, 0.03% NP-40, 4 mg/ml BSA and 2 mM DTT) for 2 h at 30° C.
The enzymatic activity of the purified proteins was assayed using fluorogenic Ubiquitin-AMC as a substrate. […] The activity of the USP1/UAF1 heterodimer was about 30-fold higher than the activity of USP1 alone (FIG. 3C).
In order to better understand the enzymatic consequences of the complex-formation between UAF1 and USP1, the kinetic parameters of the USP1 enzyme alone and the UAF1/USP1 complex were determined. […] This mechanism of activation contrasts with that of another deubiquitinating enzyme, Uch37, which is involved in proteasome-mediated protein degradation. Uch37 is activated by the Adrm1 protein. […] Nat Cell Biol 8, 994-1002).

Data set [2] addresses T1, USP1 (Homo sapiens, UniProt O94782, G670A/G671A).
T1 construct: His tag (N); made in house; host or cells: Sf9 insect cells
T1 sequence (O94782 1-785 G670A/G671A): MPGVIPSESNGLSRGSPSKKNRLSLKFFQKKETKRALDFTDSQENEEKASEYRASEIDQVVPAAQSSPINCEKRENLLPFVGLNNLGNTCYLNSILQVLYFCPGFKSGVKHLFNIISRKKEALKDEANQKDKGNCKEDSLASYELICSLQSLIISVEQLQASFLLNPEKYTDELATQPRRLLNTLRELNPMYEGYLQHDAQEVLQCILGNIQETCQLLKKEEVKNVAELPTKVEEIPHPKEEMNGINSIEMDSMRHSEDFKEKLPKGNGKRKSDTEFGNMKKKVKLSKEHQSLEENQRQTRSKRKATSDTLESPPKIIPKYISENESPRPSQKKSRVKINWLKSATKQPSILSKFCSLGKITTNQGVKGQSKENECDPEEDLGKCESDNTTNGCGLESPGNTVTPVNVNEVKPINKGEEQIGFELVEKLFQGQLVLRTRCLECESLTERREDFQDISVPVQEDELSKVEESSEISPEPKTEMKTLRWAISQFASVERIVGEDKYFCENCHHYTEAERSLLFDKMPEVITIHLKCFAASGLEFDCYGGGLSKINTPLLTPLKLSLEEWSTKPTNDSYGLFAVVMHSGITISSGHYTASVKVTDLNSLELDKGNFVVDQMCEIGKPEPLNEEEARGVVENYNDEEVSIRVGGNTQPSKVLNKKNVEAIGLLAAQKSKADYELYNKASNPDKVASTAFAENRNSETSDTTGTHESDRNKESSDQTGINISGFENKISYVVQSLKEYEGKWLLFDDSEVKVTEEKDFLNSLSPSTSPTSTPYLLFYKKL
In words: Activation of USP1 enzymatic activity in vitro by UAF1 wild type or mutant protein. It is filed as biochemical. Conditions: all proteins 10 nM, Ub-AMC. How it is done:
A) Scheme of wild type UAF1 and deletion mutants thereof. B) Flag-tagged deletion mutants of UAF1 were transiently expressed in 293T cells. The Flag-tagged proteins were immunoprecipitated from cell lysates using anti-Flag antibodies. The immunoprecipitates were analyzed using the indicated antibodies. C) A mutant protein of UAF1 where the second WD40 repeat has been deleted (UAF1-ΔWD2) fails to activate USP1 enzymatic activity in vitro. Strep-tagged UAF1-ΔWD2 was expressed and purified from Sf9 insect cells. The enzymatic activity of the USP1 enzyme was monitored as UAF1 wild type or mutant proteins was added to the reaction. The concentrations of all proteins were 10 nM.
The above experiments were performed using a preformed USP1/UAF1 complex. To gain further insight into the dynamics of USP1/UAF1 complex formation and USP1 activation, the kinetics of UAF1 binding and activation of USP1 were investigated. An in vitro enzymatic reaction of USP1 was set up using Ubiquitin-AMC as a substrate. Ten minutes into the reaction, during the stable and low substrate-turnover, either buffer or purified UAF1 protein was added in an equimolar amount to USP1. […] Given the affinity between the two proteins, it was predicted that as USP1 is synthesized in the cell, it rapidly forms a complex with UAF1. If UAF1 is not available, the protein is destabilized and degraded. […]

As to `Cc1c2oc3c(C)ccc(C(=O)N[C@@H]4C(=O)N[C@H](C(C)C)C(=O)N5CCC[C@H]5C(=O)N(C)CC(=O)N(C)[C@@H](C(C)C)C(=O)O[C@@H]4C)c3nc-2c(C(=O)N[C@@H]2C(=O)N[C@H](C(C)C)C(=O)N3CCC[C@H]3C(=O)N(C)CC(=O)N(C)[C@@H](C(C)C)C(=O)O[C@@H]2C)c(N)c1=O` [Actinomycin D] (I: T[dV]P[Sar][NMeV] / II: T[dV]P[Sar][NMeV]; ester I:1-I:C, II:1-II:C; linker I:N-II:N via Actinocin(9to1)), in the data set with USP1 [1], the “USP1 protein levels over time” value was “decrease of USP1 protein levels over time”. For the same compound, the “level of UAF1 protein” value with UAF1 is recorded as “remained unchanged”. Also, the “USP1 mRNA level” value with USP1 mRNA was “decreased with similar kinetics in all three cases”.

Take “UAF1: purified USP1 Associated Factor 1, WD40 repeat protein (SEQ ID NO:4)”: the “relative activity (slope of Ub-AMC curve), USP1 set to 1” value with Ubiquitin-AMC (10 nM each protein) is −0.25. Also, the “deubiquitinating activity on Ubiquitin-AMC” value with Ubiquitin-AMC (purified protein alone) was “no detectable deubiquitinating activity”. The “stimulation of USP1 enzymatic activity” value in the data set with USP1 [2] is reported as “able to stimulate the enzymatic activity of USP1”.
